Reference: patent US7935674B2, “Indole derivatives” (Mitsubishi Tanabe Pharma Corporation, priority 2005, dated 2011)

Columns and labels:
human SGLT2 = molecular target: T1, human SGLT2 (Homo sapiens, UniProt P31639); assay: Assay for SGLT2 inhibition (14C-AMG uptake in CHOK1 cells expressing human SGLT2); type: cell-based; conditions: CHOK1 cells expressing human SGLT2; 14C-AMG uptake, 0.5 mM, 2 hours at 37° C.; read-out: IC50
T1 construct: expressed in transfected cells; host or cells: CHOK1 (Chinese hamster ovary) cells, kept under Geneticin selection
T1 sequence (P31639 1-672): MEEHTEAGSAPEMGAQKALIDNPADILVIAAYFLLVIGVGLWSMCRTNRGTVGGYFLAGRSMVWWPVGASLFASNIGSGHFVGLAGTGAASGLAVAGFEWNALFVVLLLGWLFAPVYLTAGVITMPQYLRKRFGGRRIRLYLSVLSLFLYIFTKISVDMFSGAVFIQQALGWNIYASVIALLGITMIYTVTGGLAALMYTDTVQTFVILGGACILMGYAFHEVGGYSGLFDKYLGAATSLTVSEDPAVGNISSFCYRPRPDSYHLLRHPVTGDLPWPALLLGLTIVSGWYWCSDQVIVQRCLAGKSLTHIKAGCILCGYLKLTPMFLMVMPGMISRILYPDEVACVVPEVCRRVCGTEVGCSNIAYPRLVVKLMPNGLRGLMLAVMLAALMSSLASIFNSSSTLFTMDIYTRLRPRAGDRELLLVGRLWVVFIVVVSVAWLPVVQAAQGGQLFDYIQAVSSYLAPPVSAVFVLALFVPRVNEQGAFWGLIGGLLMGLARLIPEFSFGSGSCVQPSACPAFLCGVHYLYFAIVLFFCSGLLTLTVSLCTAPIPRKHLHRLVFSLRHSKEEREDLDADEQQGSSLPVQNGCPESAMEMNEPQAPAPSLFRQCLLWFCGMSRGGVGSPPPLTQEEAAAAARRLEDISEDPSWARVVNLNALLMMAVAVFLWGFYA
Protocol: 1. Assay for SGLT2 Inhibition
Compounds described in the above examples were used for the SGLT2 inhibition assay.
CHOK1 cells expressing human SGLT2 were seeded in 24-well plates at a density of 400,000 cells/well in F-12 nutrient mixture (Ham's F-12) containing 10% fetal bovine serum, 400 μg/ml Geneticin, 50 units/ml sodium penicillin G (Gibco-BRL) and 50 μg/ml streptomycin sulfate. After 2 days of culture at 37° C. in a humidified atmosphere containing 5% CO2, cells were washed once with the assay buffer (137 mM NaCl, 5 mM KCl, 1 mM CaCl2, 1 mM MgCl2, 50 mM Hepes, and 20 mM Tris, pH 7.4) and incubated with 250 μl of the buffer containing test compounds for 10 min at 37° C. Test compounds were dissolved in DMSO. The final concentration of DMSO was 0.5%. The transport reaction was initiated by addition of 50 μl [^14C]-methyl-α-D-glucopyranoside (^14C-AMG) solution (final concentration, 0.5 mM). After incubation for 2 hours at 37° C., the uptake was stopped by aspiration of the incubation mixture, the cells were washed three times with ice-cold PBS. Then, cells were solubilized with 0.3 N NaOH and aliquots were taken for determination of radioactivity by a liquid scintillation counter. Nonspecific AMG uptake was defined as that which occurred in the presence of 100 μM of phlorizin, a specific inhibitor of sodium-dependent glucose cotransporter. Specific uptake was normalized for the protein concentrations measured by the method of Bradford. The 50% inhibitory concentration (IC50) values were calculated from dose-response curves by least square method.

Sprague-Dawley (SD) rats = assay: Urinary glucose excretion test in rats; type: in vivo, rat; conditions: male SD rats; 30 mg/kg by oral gavage; urine collected for 24 hours; daily amount of glucose excreted in urine per individual
Protocol: 2. Urinary Glucose Excretion Test in Rats Test Compounds:
Compounds described in the above examples were used for the Urinary glucose excretion test in rats.
6-week-old male Sprague-Dawley (SD) rats were housed in individual metabolic cages with free access to food and water from 2 days prior to the experiment. On the morning of the experiment, rats were administered vehicle (0.2% carboxymethyl cellulose solution containing 0.2% Tween80) or test compounds (30 mg/kg) by oral gavage at a volume of 10 ml/kg. Then, urine of the rat was collected for 24 hours, and the urine volume was measured. Subsequently, the glucose concentration in urine was quantified using the enzymatic assay kit and the daily amount of glucose excreted in urine per individual was calculated.

| Structure (SMILES) | IC50 (human SGLT2) | Urinary glucose (Sprague-Dawley (SD) rats) |
| --- | --- | --- |
| CCc1ccc(Cc2cn([C@@H]3O[C@H](CO)[C@@H](O)[C@H](O)[C@H]3O)c3cccc(F)c23)cc1 [Example 2, 3-(4-Ethylphenylmethyl)-4-fluoro-1-(β-D-glucopyranosyl)-indole] | 5.2 nM | A (A≧2400 mg) |
| CCOc1ccc(Cc2cn([C@@H]3O[C@H](CO)[C@@H](O)[C@H](O)[C@H]3O)c3cccc(Cl)c23)cc1 [Example 3, 4-Chloro-3-(4-ethoxyphenylmethyl)-1-(β-D-glucopyranosyl)-indole] | 3.5 nM | B (2400 mg>B≧2000 mg) |
| OC[C@H]1O[C@@H](n2cc(Cc3ccc(Cl)cc3)c3c(Cl)cccc32)[C@H](O)[C@@H](O)[C@@H]1O [Example 6, 4-Chloro-3-(4-chlorophenylmethyl)-1-(β-D-glucopyranosyl)-indole] | 9.8 nM | A (A≧2400 mg) |
| CCOc1ccc(Cc2cn([C@@H]3O[C@H](CO)[C@@H](O)[C@H](O)[C@H]3O)c3cccc(F)c23)cc1 [Example 8, 3-(4-Ethoxyphenylmethyl)-4-fluoro-1-(β-D-glucopyranosyl)-indole] | 4.8 nM | A (A≧2400 mg) |
| OC[C@H]1O[C@@H](n2cc(Cc3ccc(OCCCl)cc3)c3c(F)cccc32)[C@H](O)[C@@H](O)[C@@H]1O [Example 13, 3-(4-(2-Chloroethyloxy)phenylmethyl)-4-fluoro-1-(β-D-gluco-pyranosyl)indole] | 6 nM | B (2400 mg>B≧2000 mg) |
| OC[C@H]1O[C@@H](n2cc(Cc3ccc(Br)cc3)c3c(Cl)cccc32)[C@H](O)[C@@H](O)[C@@H]1O [Example 14, 3-(4-Bromophenylmethyl)-4-chloro-1-(β-D-glucopyranosyl)-indole] | 8.1 nM | A (A≧2400 mg) |
| OC[C@H]1O[C@@H](n2cc(Cc3ccc4occc4c3)c3c(Cl)cccc32)[C@H](O)[C@@H](O)[C@@H]1O [Example 15, 3-(Benzo[b]furan-5-yl-methyl)-4-chloro-1-(β-D-glucopyranosyl)indole] | 3.3 nM | A (A≧2400 mg) |
| CCc1ccc(Cc2cn([C@@H]3O[C@H](CO)[C@@H](O)[C@H](O)[C@H]3O)c3cccc(C)c23)cc1 [Example 23, 3-(4-Ethylphenylmethyl)-4-methyl-1-(β-D-glucopyranosyl)-indole] | 1.1 nM | – |
| Cc1cccc2c1c(Cc1ccc(-c3ccc(F)cc3)s1)cn2[C@@H]1O[C@H](CO)[C@@H](O)[C@H](O)[C@H]1O [Example 48, 3-(5-(4-Fluorophenyl)thiophen-2-yl-methyl)-4-methyl-1-(β-D-glucopyranosyl)indole] | 19 nM | – |
| Cc1cccc2c1c(Cc1ccc(-c3ccc(F)nc3)s1)cn2[C@@H]1O[C@H](CO)[C@@H](O)[C@H](O)[C@H]1O [Example 49, 3-(5-(6-Fluoro-3-pyridyl)thiophen-2-yl-methyl)-4-methyl-1-(β-D-glucopyranosyl)indole] | 8.8 nM | – |
| Cc1cccc2c1c(Cc1ccc(-c3ccccc3)s1)cn2[C@@H]1O[C@H](CO)[C@@H](O)[C@H](O)[C@H]1O [Example 50, 4-Methyl-3-(5-phenylthiophen-2-yl-methyl)-1-(β-D-gluco-pyranosyl)indole] | 11 nM | – |

Second part, led by results:

| IC50 (human SGLT2) | Structure (SMILES) | Urinary glucose (Sprague-Dawley (SD) rats) |
| --- | --- | --- |
| 2.9 nM | CCc1ccc(Cc2cn([C@@H]3O[C@H](CO)[C@@H](O)[C@H](O)[C@H]3O)c3cccc(Cl)c23)cc1 [Example 1, 4-Chloro-3-(4-ethylphenylmethyl)-1-(β-D-glucopyranosyl)-indole] | – |
| 1.7 nM | CSc1ccc(Cc2cn([C@@H]3O[C@H](CO)[C@@H](O)[C@H](O)[C@H]3O)c3cccc(Cl)c23)cc1 [Example 4, 4-Chloro-3-(4-(methylthio)phenylmethyl)-1-(β-D-gluco-pyranosyl)indole] | – |
| 1.8 nM | COc1ccc(Cc2cn([C@@H]3O[C@H](CO)[C@@H](O)[C@H](O)[C@H]3O)c3cccc(Cl)c23)cc1 [Example 5, 4-Chloro-3-(4-methoxyphenylmethyl)-1-(β-D-glucopyranosyl)-indole] | – |
| 5 nM | OC[C@H]1O[C@@H](n2cc(Cc3ccc(Br)s3)c3c(Cl)cccc32)[C@H](O)[C@@H](O)[C@@H]1O [Example 7, 3-(5-Bromo-2-thienylmethyl)-4-chloro-1-(β-D-glucopyranosyl)-indole] | B (2400 mg>B≧2000 mg) |
| 3.3 nM | COc1ccc(Cc2cn([C@@H]3O[C@H](CO)[C@@H](O)[C@H](O)[C@H]3O)c3cccc(F)c23)cc1 [Example 9, 4-Fluoro-3-(4-methoxyphenylmethyl)-1-(β-D-glucopyranosyl)-indole] | – |
| 2.4 nM | CSc1ccc(Cc2cn([C@@H]3O[C@H](CO)[C@@H](O)[C@H](O)[C@H]3O)c3cccc(F)c23)cc1 [Example 10, 4-Fluoro-3-(4-(methylthio)phenylmethyl)-1-(β-D-gluco-pyranosyl)indole] | – |
| 2.4 nM | Cc1ccc(Cc2cn([C@@H]3O[C@H](CO)[C@@H](O)[C@H](O)[C@H]3O)c3cccc(Cl)c23)cc1 [Example 11, 4-Chloro-3-(4-methylphenylmethyl)-1-(β-D-glucopyranosyl)-indole] | – |
| 4.1 nM | OC[C@H]1O[C@@H](n2cc(Cc3ccc(OCCF)cc3)c3c(F)cccc32)[C@H](O)[C@@H](O)[C@@H]1O [Example 12, 4-Fluoro-3-(4-(2-fluoroethyloxy)phenylmethyl)-1-(β-D-gluco-pyranosyl)indole] | – |
| 2.1 nM | CCc1ccc(Cc2cn([C@@H]3O[C@H](CO)[C@@H](O)[C@H](O)[C@H]3O)c3cccc(Cl)c23)s1 [Example 16, 4-Chloro-3-(5-ethylthiophen-2-yl-methyl)-1-(β-D-gluco-pyranosyl)indole] | – |
| 2.5 nM | OC[C@H]1O[C@@H](n2cc(Cc3ccc(OCCF)cc3)c3c(Cl)cccc32)[C@H](O)[C@@H](O)[C@@H]1O [Example 17, 4-Chloro-3-(4-(2-Fluoroethyloxy)phenylmethyl)-1-(β-D-glucopyranosyl)indole] | – |
| 4.1 nM | CCc1ccc(Cc2cn([C@@H]3O[C@H](CO)[C@@H](O)[C@H](O)[C@H]3O)c3cccc(F)c23)s1 [Example 18, 3-(5-Ethylthiophen-2-yl-methyl)-4-fluoro-1-(β-D-gluco-pyranosyl)indole] | B (2400 mg>B≧2000 mg) |
| 1.8 nM | OC[C@H]1O[C@@H](n2cc(Cc3ccc4c(c3)CCO4)c3c(Cl)cccc32)[C@H](O)[C@@H](O)[C@@H]1O [Example 21, 4-Chloro-3-(2,3-dihydrobenzo[b]furan-5-yl-methyl)-1-(β-D-glucopyranosyl)indole] | – |
| 3.7 nM | CCc1ccc(Cc2cn([C@@H]3O[C@H](CO)[C@@H](O)[C@H](O)[C@H]3O)c3cccc(Br)c23)cc1 [Example 22, 4-Bromo-3-(4-ethylphenylmethyl)-1-(β-D-glucopyranosyl)indole] | – |
| 6.3 nM | Cc1ccc(Cc2cn([C@@H]3O[C@H](CO)[C@@H](O)[C@H](O)[C@H]3O)c3cccc(F)c23)cc1 [Example 24, 4-Fluoro-3-(4-methylphenylmethyl)-1-(β-D-glucopyranosyl)-indole] | – |
| 2.5 nM | Cc1cccc2c1c(Cc1ccc(-c3cccc(C#N)c3)s1)cn2[C@@H]1O[C@H](CO)[C@@H](O)[C@H](O)[C@H]1O [Example 45, 3-(5-(3-Cyanophenyl)-thiophen-2-yl-methyl)-4-methyl-1-(β-D-glucopyranosyl)indole] | – |
| 6.1 nM | Cc1cccc2c1c(Cc1ccc(-c3cccs3)s1)cn2[C@@H]1O[C@H](CO)[C@@H](O)[C@H](O)[C@H]1O [Example 51, 4-Methyl-3-(5-(2-thienyl)thiophen-2-yl-methyl)-1-(β-D-gluco-pyranosyl)indole] | – |
